Values quoted from earlier work in patent US20200299317A1 (Tokuyama Corporation, priority 2018, published 2020).

Conditions: ferric citrate obtainable per Patent Literature 2

Q: For ferric citrate, which “BET specific surface area” value is on record?
A: Its value is 20 to 45 m^2/g.
